According to publication PMC11440508, “Dually Labeled Neurotensin NTS1R Ligands for Probing Radiochemical and Fluorescence-Based Binding Assays” (Journal of Medicinal Chemistry, 2024):

Key:
[1] = biological target: T1, NTS1R (Homo sapiens, UniProt P30989); assay: Radiochemical association and dissociation kinetics, adherent CHO-hNTS1R cells; assay type: binding
Procedure: Binding of both ligands, [^3H]13 and [^3H]18, was studied at adherent and suspended intact CHO-hNTS1R cells, and binding of [^3H]13 was additionally studied using CHO-hNTS1R cell membrane preparations (saturation and competition binding, kinetic studies). Furthermore, saturation binding experiments were performed with both ligands at intact adherent HT-29 cells. All experiments were performed in triplicate except for dissociation experiments performed with suspended cells in 50 mL flacon tubes (performed in duplicate). To reduce radioligand consumption in the aforementioned experiments, [^3H]13 and [^3H]18 were 1:1 diluted with 13 and 18, respectively (for the purpose of easier reading these mixtures are denoted "[^3H]13" and "[^3H]18"in the following). All samples were incubated at 23 ± 1 °C in the dark under gentle shaking (incubation times are outlined below). DPBS1 served as binding buffer throughout. In the case of experiments performed with cell suspensions, CHO-hNTS1R cells were seeded in T75 culture flasks 3–4 days prior to the experiment. On the day of the experiment, cells were detached by trypsinization, suspended in DPBS1 and centrifuged at 200g at rt for 5 min. Cells were resuspended in binding buffer and the cell density was adjusted to 1.5 × 10^5 to 2.5 × 10^5 cells/mL. Samples involving suspended cells or membrane preparations were prepared and incubated in 96-well polypropylene plates (Brand 701330, Wertheim, Germany) or in 50 mL polypropylene falcon tubes (Sarstedt), and the same filtration procedure for separating free radioligand from cell- or membrane bound radioligand was applied for all kind of binding experiments: after completed incubation, cells or cell membranes were collected on GF/C filter mats (0.26 mm; Whatman, Maidstone, U.K.) (pretreated with 0.3% polyethylenimine for 30 min) using an in-house manufactured harvester for 96-well plates (precision engineering workshop of the University of Regensburg, Regensburg, Germany), and the wells of the plate and the cells on the filter mat were immediately washed twice with ice-cold PBS (2 × 200 μL) (note: when samples were incubated in falcon tubes, 200-μL aliquots were transferred to the wells of a 96-well polypropylene plate after the incubation period, immediately followed by the filtration procedure). Filter pieces for each well were punched out and transferred into 1450–401 96-well sample plates (PerkinElmer, Rodgau, Germany), followed by the addition of Rotiscint Routine (Carl Roth, Karlsruhe, Germany) (200 μL). The plates were sealed with transparent sealing tape (Greiner EASYseal, part no. 676001, Greiner Bio-One) and shaken in the dark overnight before measurement of the radioactivity (dpm) using a MicroBeta2 plate counter equipped with six pairs of photomultiplier tubes (PerkinElmer).
For experiments involving adherent cells, CHO-hNTS1R (25,000 cells per well) or HT-29 (35,000 cells per well) cells were seeded one day prior to the experiment in white 96-well plates with clear bottom (VWR 732–3740). On the day of the experiment, the medium was aspirated and the cells (confluency: 70–90%) were washed with PBS (200 μL) followed by covering with DPBS1 (160 μL) and the addition of the ligands as outlined below. After completed incubation, the liquid was aspirated and the wells were washed twice with ice-cold PBS (200 μL) followed by the addition of lysis solution (urea (8 M), acetic acid (3 M) and Triton-X (1%) in water) (25 μL). After shaking for at least 20 min, liquid scintillator (UltimaGold, PerkinElmer) (200 μL) was added and the plates were sealed with a transparent sealing tape (permanent seal for microplates, PerkinElmer, prod. no. 1450–461). The sealed plates were turned upside down several times to achieve complete mixing of scintillator and lysis solution and were kept in the dark for at least 3 h before measurement of the radioactivity (dpm) with the MicroBeta2 plate counter. […]

[2] = biological target: T1, NTS1R; assay: Radiochemical saturation binding, adherent HT-29 cells; conditions: 23 °C
Procedure: Binding of both ligands, [^3H]13 and [^3H]18, was studied at adherent and suspended intact CHO-hNTS1R cells, and binding of [^3H]13 was additionally studied using CHO-hNTS1R cell membrane preparations (saturation and competition binding, kinetic studies). Furthermore, saturation binding experiments were performed with both ligands at intact adherent HT-29 cells. All experiments were performed in triplicate except for dissociation experiments performed with suspended cells in 50 mL flacon tubes (performed in duplicate). To reduce radioligand consumption in the aforementioned experiments, [^3H]13 and [^3H]18 were 1:1 diluted with 13 and 18, respectively (for the purpose of easier reading these mixtures are denoted "[^3H]13" and "[^3H]18"in the following). All samples were incubated at 23 ± 1 °C in the dark under gentle shaking (incubation times are outlined below). DPBS1 served as binding buffer throughout. In the case of experiments performed with cell suspensions, CHO-hNTS1R cells were seeded in T75 culture flasks 3–4 days prior to the experiment. […] The plates were sealed with transparent sealing tape (Greiner EASYseal, part no. 676001, Greiner Bio-One) and shaken in the dark overnight before measurement of the radioactivity (dpm) using a MicroBeta2 plate counter equipped with six pairs of photomultiplier tubes (PerkinElmer). […]

[3] = biological target: T1, NTS1R; assay: Radiochemical competition binding, adherent CHO-hNTS1R cells; conditions: labeled probe [^3H]13 (1.3 nM), 90 min, 23 °C, read-out: RC adherent cells: pKi ± SEM (converted)
[4] = biological target: T1, NTS1R; assay: Radiochemical competition binding, suspended CHO-hNTS1R cells; conditions: labeled probe [^3H]13 (1.8 nM), 90 min, 23 °C, read-out: RC cell suspension: pKi ± SEM (converted)
[5] = biological target: T1, NTS1R; assay: Radioligand competition binding with [^3H]UR-MK300 at intact HT-29 colon carcinoma cells; conditions: [^3H]UR-MK300, intact HT-29 cells, 23 °C; read-out: NTS1R pKi ± SEM (converted)
Procedure: NTS1R binding affinities were determined in a reported competition binding assay[13] using intact hNTS1R-expressing HT-29 colon carcinoma cells and [^3H]UR-MK300 (structure see Figure 1A) as radioligand (competition binding curves shown in Figure S4, Supporting Information).
NTS1R radioligand competition binding experiments with [^3H]UR-MK300 (molar activity: 2.41 TBq/mmol) and the peptides 6–9, 10a, 10b, 13–16, and 18 were performed with intact hNTS1R-expressing human HT-29 colon carcinoma cells at 23 ± 1 °C using a previously reported protocol.[13] […] Cells were seeded one day before the assay, yielding a confluency of at least 90% on the day of the experiment. Total binding data (including total binding in the absence of competitor) were plotted as dpm values against log(concentration competitor) and analyzed by a four-parameter logistic equation (log(inhibitor) vs response–variable slope, GraphPad Prism 5, GraphPad Software, San Diego, CA) to obtain pIC50 values. Individual pIC50 values were converted to pKi values according to the Cheng–Prusoff equation[60] (logarithmic form). To plot average data from individual binding experiments, data were normalized (100% = “top” of the four-parameter logistic fit, 0% = unspecifically bound radioligand).

T1 sequence (P30989 whole entry): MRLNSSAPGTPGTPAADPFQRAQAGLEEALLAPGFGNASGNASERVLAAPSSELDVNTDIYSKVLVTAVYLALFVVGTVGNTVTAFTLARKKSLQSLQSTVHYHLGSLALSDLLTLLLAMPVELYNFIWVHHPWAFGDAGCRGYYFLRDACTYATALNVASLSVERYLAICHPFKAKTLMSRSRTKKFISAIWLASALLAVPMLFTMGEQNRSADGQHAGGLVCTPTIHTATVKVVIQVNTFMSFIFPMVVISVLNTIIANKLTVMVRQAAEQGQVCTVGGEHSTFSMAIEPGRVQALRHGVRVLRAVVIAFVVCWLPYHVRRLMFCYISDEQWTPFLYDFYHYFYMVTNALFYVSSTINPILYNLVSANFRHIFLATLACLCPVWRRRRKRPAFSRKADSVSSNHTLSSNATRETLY

Structure (SMILES): CCC(=O)NCCCCNC(=O)NC(=N)NCCC[C@H](NC(=O)[C@@H]1CCCN1C(=O)[C@@H](NC(=O)CCc1cn(CCCNC(=O)c2ccc(-c3c4ccc(=[N+](C)C)cc-4oc4cc(N(C)C)ccc34)c(C(=O)[O-])c2)nn1)C1CCNCC1)C(=O)N[C@@H](CCCNC(=N)N)C(=O)N1CCC[C@H]1C(=O)N[C@@H](Cc1ccc(O)cc1)C(=O)N[C@H](C(=O)N[C@@H](CC(C)C)C(=O)O)[C@@H](C)CC [[^3H]13]
- koff ([1]; adherent CHO-hNTS1R cells, 23 °C, read-out: koff [min^–1] (converted)): 0.000233 s⁻¹
- kobs(slow) [min^–1] ([1]; adherent CHO-hNTS1R cells, biphasic exponential fit): 0.011 ± 0.001 ^b min^–1
- kon ([1]; adherent CHO-hNTS1R cells, calculated from koff, kobs(fast) and ligand concentration, read-out: kon(fast) [min^–1 nM^–1] (converted)): 5.5e+06 M⁻¹ s⁻¹
- Kd ([1]; adherent CHO-hNTS1R cells, koff/kon(fast), read-out: Kd(kin)): 0.41 ± 0.24 nM
- kobs(fast) [min^–1] ([1]; adherent CHO-hNTS1R cells, monophasic fit of initial association phase, 1.3 nM [^3H]13 or […] [^3H]18): 0.57 ± 0.08 ^a min^–1
- Proportion of fast kinetic component (association) ([1]; adherent cells): 19%
- Proportion of slow kinetic component (association) ([1]; adherent cells): 81%
- Kd [2]: 1.2 ± 0.1 nM

Structure (SMILES): CCC(=O)NCCCCNC(=O)N=C(N)NCCC[C@H](NC(=O)[C@@H]1CCCN1C(=O)[C@@H](NC(=O)CCc1cn(CCCNC(=O)c2ccc(-c3c4ccc(=[N+](C)C)cc-4oc4cc(N(C)C)ccc34)c(C(=O)[O-])c2)nn1)C1CCNCC1)C(=O)N[C@@H](CCCNC(=N)N)C(=O)N1CCC[C@H]1C(=O)N[C@@H](Cc1ccc(O)cc1)C(=O)N[C@H](C(=O)N[C@@H](CC(C)C)C(=O)O)[C@@H](C)CC [Compound 13, N^α-(3-(1-N-((1-Carboxylato-2-(6-(dimethylamino)-3-(dimethyliminio)-3H-xanthen-9-yl)phen-5-yl)1-oxomethyl)aminoprop-3-yl-1H-1,2,3-triazol-4-yl)propanoyl)-2-(piperidin-4-yl)-Gly-Pro-N^ω-[(4-(N-propanoyl)aminobutyl)aminocarbonyl]Arg-Arg-Pro-Tyr-Ile-Leu Tris(hydrotrifluoroacetate)]
- Ki [3]: 1.51 nM
- Ki [4]: 4.68 nM

Structure (SMILES): CCC(=O)NCCCCNC(=O)NC(=N)NCCC[C@H](NC(=O)[C@@H]1CCCN1C(=O)[C@@H](NC(=O)CCc1cn(CCCNC(=O)CCC#Cc2ccc3c(c2)C(C)(C)C2=C4C=C5C6=[N+](CCC5OC4CCN23)c2ccc(S(=O)(=O)[O-])cc2C6(C)C)nn1)C1CCNCC1)C(=O)N[C@@H](CCCNC(=N)N)C(=O)N1CCC[C@H]1C(=O)N[C@H](C(=O)N[C@H](C(=O)N[C@@H](CC(C)C)C(=O)O)[C@@H](C)CC)C(C)(C)c1ccc(O)cc1 (stereo partly drawn) [Compound 18, N^α-(3-(N-(1-(8-Sulfonato-5,5,27,27-tetramethyl-16-oxa-20-aza-12-azoniaheptacyclo[15.11.0.03,15.04,12.06,11.020,28.021,26]octacosa-1(28),2,4(12),6(11),7,9,21(26),22,24-nonaen-24-yl)-5-oxopentyn-5-yl)-1-aminoprop-3-yl-1H-1,2,3-triazol-4-yl)propanoyl)-2-(piperidin-4-yl)-Gly-Pro-N^ω-[(4-(N-propanoyl)aminobutyl)aminocarbonyl]Arg-Arg-Pro-β,β-dimethyl-L-Tyr-Ile-Leu Tris(hydrotrifluoroacetate)]
- Ki [5]: 4.07 nM
